Laboratory results as given in patent US20240327311A1, “Benzothiazole Derivative as a Urease Inhibitor for Fertilizer Application” (Sabic Agri-Nutrients Company, priority 2021, published 2024).
pIC50: −log10 of the molar value.

What was measured:
urease = urease (Canavalia ensiformis, UniProt P07374); conditions: cited from earlier work
[1] = Thermogravimetric analysis and isothermal study under air; assay type: physicochemical; conditions: air atmosphere
[2] = similar storage conditions; Soil Use and Management, 2008, 24, 246; cited from earlier work
[3] = similar conditions; U.S. Pat. No. 10,640,430; cited from earlier work

Sequence of urease (P07374 whole entry, looked up): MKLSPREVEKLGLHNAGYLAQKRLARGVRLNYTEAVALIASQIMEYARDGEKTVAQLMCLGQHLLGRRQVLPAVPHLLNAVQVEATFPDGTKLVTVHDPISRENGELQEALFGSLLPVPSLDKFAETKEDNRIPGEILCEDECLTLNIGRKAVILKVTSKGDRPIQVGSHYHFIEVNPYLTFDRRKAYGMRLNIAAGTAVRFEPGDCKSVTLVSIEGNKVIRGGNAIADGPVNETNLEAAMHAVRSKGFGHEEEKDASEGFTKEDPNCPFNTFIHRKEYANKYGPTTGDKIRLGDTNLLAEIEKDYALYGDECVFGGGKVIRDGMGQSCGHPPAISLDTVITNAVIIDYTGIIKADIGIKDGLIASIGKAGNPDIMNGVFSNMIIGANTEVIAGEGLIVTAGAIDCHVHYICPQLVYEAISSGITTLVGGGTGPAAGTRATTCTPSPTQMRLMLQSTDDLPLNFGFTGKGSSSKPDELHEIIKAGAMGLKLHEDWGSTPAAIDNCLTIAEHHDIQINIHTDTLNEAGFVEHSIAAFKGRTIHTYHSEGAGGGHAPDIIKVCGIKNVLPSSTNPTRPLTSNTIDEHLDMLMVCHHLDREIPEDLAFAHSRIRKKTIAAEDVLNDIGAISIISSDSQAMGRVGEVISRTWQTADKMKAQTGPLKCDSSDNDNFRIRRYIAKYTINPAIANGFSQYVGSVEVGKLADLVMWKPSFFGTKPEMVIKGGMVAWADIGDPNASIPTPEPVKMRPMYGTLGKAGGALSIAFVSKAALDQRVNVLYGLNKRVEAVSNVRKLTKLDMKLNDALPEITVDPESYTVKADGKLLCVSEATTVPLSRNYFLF

Question: With `NP(N)(=O)Nc1ccccc1[N+](=O)[O-]` as the compound, how does the pIC50 (urease) read?
Answer: Its pIC50 is 8.52.

Question: Which “amount of BZT lost (isothermal study)” value ([1]; 140° C., 40 minutes) does the source give for `Oc1cccc(-c2nc3ccccc3s2)c1` [BZT, 2-(3-Hydroxyphenyl) benzothiazole] here?
Answer: Its value is “about 0.26%”.

Question: And the “onset of degradation (TGA)” value [1]?
Answer: Its value is 255.1 °C.

Question: With `CCCCNP(N)(N)=S` [drawing 22] as the compound, how does the pIC50 (urease) read?
Answer: Its pIC50 is 7.00.

Question: For `CCCCNP(N)(N)=S` [NBTPT, N-(n-butyl) thiophosphoric triamide], which storage stability [2] is on record?
Answer: Its storage stability is “unstable”.

Question: And the “degradation under urea melt conditions” value [3]?
Answer: The value was “significant degradation”.
